Data published in PubChem BioAssay (NCI).
Several values for one entry are separate records, joined by “and”; a condition that tells them apart may be missing. Identical values can stand only once.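 Tested at 5 concentrations; 48 h exposure; 96-well plates; endpoints linearly interpolated, else capped at highest concentration. Abbreviation: GI50, concentration required for 50% inhibition of growth. TGI: concentration producing complete growth inhibition.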

Key:
Test in all cases: NCI tumour cell line growth inhibition, 48 h
SK-OV-3 ovarian = test system: SK-OV-3 ovarian
NCI-H460 lung = test system: NCI-H460 lung
NCI-H23 lung = test system: NCI-H23 lung
UACC-257 melanoma = test system: UACC-257 melanoma
HOP-92 NSCLC = test system: HOP-92 NSCLC
HT29 colon = test system: HT29 colon
KM12 colon = test system: KM12 colon
OVCAR-5 ovarian = test system: OVCAR-5 ovarian
OVCAR-3 ovarian = test system: OVCAR-3 ovarian
OVCAR-4 ovarian = test system: OVCAR-4 ovarian

| Compound | GI50 (SK-OV-3 ovarian) | TGI (SK-OV-3 ovarian) | GI50 (NCI-H460 lung) | TGI (NCI-H460 lung) | GI50 (NCI-H23 lung) | TGI (NCI-H23 lung) | GI50 (UACC-257 melanoma) | TGI (UACC-257 melanoma) | GI50 (HOP-92 NSCLC) | TGI (HOP-92 NSCLC) | GI50 (HT29 colon) | TGI (HT29 colon) | GI50 (KM12 colon) | TGI (KM12 colon) | GI50 (OVCAR-5 ovarian) | TGI (OVCAR-5 ovarian) | GI50 (OVCAR-3 ovarian) | TGI (OVCAR-3 ovarian) | GI50 (OVCAR-4 ovarian) | TGI (OVCAR-4 ovarian) [µM] |
| --- | --- | --- | --- | --- | --- | --- | --- | --- | --- | --- | --- | --- | --- | --- | --- | --- | --- | --- | --- | --- |
| COc1cc2c(cc1OC)-c1ncc3cc4c(cc3c1C2)OCO4 | 53 µM | > 100 µM | 13000 nM | 30.5 µM | 20.3 µM | 41.7 µM | 48.4 µM | > 100 µM | > 100000 nM | > 100 µM | > 100000 nM | > 100 µM | 38.1 µM | > 100 µM | 39.6 µM | 97 µM | 61.2 µM | > 100 µM | 57.3 µM | > 100 |
| CCOc1cc(C(C)(C)C)ccc1C1=N[C@@](C)(c2ccc(Cl)cc2)[C@@](C)(c2ccc(Cl)cc2)N1C(=O)N1CCN(CCS(C)(=O)=O)CC1 | 4.32 µM | 16.1 µM | 1100 nM | 5.4 µM | 4.69 µM | 20.2 µM | 1.1 µM | 3.72 µM | 2280 nM | 8.82 µM | 2290 nM | 4.74 µM | 3.33 µM | 11.4 µM | 2.46 µM | 7.8 µM | 3.14 µM | 9.33 µM | 2.68 µM | 38.3 |
| COc1cc([C@@H]2c3cc4c(cc3C(OC3O[C@@H]5COC(C)O[C@H]5[C@H](O)[C@H]3O)C3COC(=O)[C@@H]32)OCO4)cc(OC)c1O (some centres undefined) | 1.58 µM | 14.2 µM | 116 nM | 6.88 µM | 0.652 µM | 6.88 µM | 2.12 µM | > 50 µM | 397 nM | 9.97 µM | 5420 nM | 20.3 µM | 2.46 µM | > 24.4 µM | 11 µM | > 50 µM | 4.8 µM | > 28 µM | 14.4 µM | > 50 |
| CN(C)CCNc1nc2ccccc2c2c(=O)c3ccccc3sc12 | 4.68 µM | 19 µM | 1620 nM | 3.7 µM | 1.68 µM | 4.86 µM | 1.76 µM | 3.53 µM | 1680 nM | 6.73 µM | 1800 nM | 4.81 µM | 1.71 µM | 3.72 µM | 2.25 µM | 5.14 µM | 2.06 µM | 5.46 µM | 2.85 µM | 11.1 |
| O=C(Nc1cc(-c2cccnc2)nc(NCCCN2CCOCC2)n1)c1cc(Br)cc(C(F)(F)F)c1 | 7.26 µM | 19.9 µM | 2970 nM | 8.94 µM | 3.55 µM | 15 µM | 2.1 µM | 3.78 µM | 1970 nM | 7.62 µM | 2120 nM | 4.95 µM | 3.62 µM | 13.6 µM | 6.33 µM | 23.5 µM | 3.7 µM | 12.8 µM | 3.26 µM | 14.5 |
| CCCCCCNC(=O)Oc1ccc(/C(=C(\C)c2ccccc2)c2ccc(OCCN(CC)CC)cc2)cc1 | 8.33 µM | 15.2 µM | 1400 nM | 3.62 µM | 5.17 µM | 11.6 µM | 1.21 µM | 3.17 µM | 2590 nM | 9.16 µM | 1170 nM | 2.9 µM | 2.84 µM | 10 µM | 6.71 µM | 13.2 µM | 4.73 µM | 11.6 µM | 5.46 µM | 11.9 |
| Cc1ccc(S(=O)OC23CC4CC(CC(C4)C2)C3)cc1 (centres undefined) |  | > 100 µM |  | > 100 µM |  | > 100 µM |  | > 100 µM |  | > 100 µM |  | > 100 µM |  | > 100 µM |  | > 100 µM |  | > 100 µM |  | > 100 |
| COc1ccc(-c2c(N)n[nH]c2-c2cc(OC)c(OC)c(OC)c2)cc1 | 0.211 µM | 52.4 µM | 99.3 nM | 17.2 µM | 0.25 µM | 43.7 µM | 23.6 µM | > 100 µM | 499 nM | > 100 µM | 247 nM | 3.29 µM | 0.0594 µM | 18 µM | 0.572 µM | > 100 µM | 0.04 µM | 0.187 µM | 1.62 µM | > 100 |
| NS(=O)(=O)c1ccc(NC(=O)COC(=O)c2cccc3c(=O)c4ccccc4[nH]c23)cc1 |  | 43.3 µM |  | > 100 µM |  | 60.5 µM |  | > 100 µM |  | 38.6 µM |  | > 100 µM |  | > 85.5 µM |  | > 90 µM |  | 47.6 µM |  | > 100 |
| COc1ccc(C2=NOP(c3ccccc3)(c3ccccc3)(c3ccccc3)C2)cc1 |  | > 100 µM |  | > 45.1 µM |  | > 72.5 µM |  | 99.2 µM |  | 53.2 µM |  | > 48.5 µM |  | > 100 µM |  | > 75.9 µM |  | > 85.5 µM |  | > 100 |
| O=C(O)C(=O)CBr | > 100 µM and 19.7 µM | > 100 µM and 36 µM | > 100000 nM and 21200 nM | > 100 µM and 41.9 µM | > 48.4 µM and 19.9 µM | > 74 µM and 39.5 µM | > 78.3 µM and 18.4 µM | > 100 µM and 33.6 µM | > 33200 nM and 19100 nM | > 49.9 µM and 34 µM | > 47500 nM and 25300 nM | > 76.8 µM and 62.5 µM | > 100 µM and 19 µM | > 100 µM and 34.5 µM | > 44.2 µM and 18.4 µM | > 64.8 µM and 37.5 µM | > 21.1 µM and 3.61 µM | > 40.2 µM and 13 µM | 17.5 µM and 17.4 µM | 31.4 |
| COc1cc(/C=N\O)nc(-c2ccccn2)c1 |  | > 100 µM |  | > 100 µM |  | > 100 µM |  | > 100 µM |  | > 100 µM |  | > 100 µM |  | > 100 µM |  | > 100 µM |  | > 100 µM |  | > 100 |
| COc1c(N2CCN(Cn3c(O)c(N=NC(=O)c4ccncc4)c4cc(F)ccc43)C(C)C2)c(F)cc2c(=O)c(C(=O)O)cn(C3CC3)c12 (centres undefined) | 39.8 µM | > 50 µM | 12400 nM | > 50 µM | 16.7 µM | > 50 µM | > 50 µM | > 50 µM | 22700 nM | > 50 µM | > 50000 nM | > 50 µM | > 50 µM | > 50 µM | 33.3 µM | > 50 µM | 10.5 µM | 23.8 µM | > 50 µM | > 50 |
| COc1ccc(NC(=O)/C=C(C)/C=C/C=C(C)\C=C\C2=C(C)CCCC2(C)C)cc1 | > 100 µM | > 100 µM | 84000 nM | > 100 µM | 30.1 µM | > 100 µM | 14.1 µM | > 100 µM |  | 30.4 µM | 41200 nM | > 100 µM | 62.8 µM | > 100 µM | > 100 µM | > 100 µM | 70.4 µM | > 100 µM | 34.8 µM | > 100 |
